The values that follow come from ChEMBL document CHEMBL5291721, “A preclinical secondary pharmacology resource illuminates target-adverse drug reaction associations of marketed drugs” (Nat Commun, 2023).

For assay [1], the target named is T1, Amine oxidase [flavin-containing] A (Homo sapiens, UniProt P21397).
T1 sequence (P21397 whole entry): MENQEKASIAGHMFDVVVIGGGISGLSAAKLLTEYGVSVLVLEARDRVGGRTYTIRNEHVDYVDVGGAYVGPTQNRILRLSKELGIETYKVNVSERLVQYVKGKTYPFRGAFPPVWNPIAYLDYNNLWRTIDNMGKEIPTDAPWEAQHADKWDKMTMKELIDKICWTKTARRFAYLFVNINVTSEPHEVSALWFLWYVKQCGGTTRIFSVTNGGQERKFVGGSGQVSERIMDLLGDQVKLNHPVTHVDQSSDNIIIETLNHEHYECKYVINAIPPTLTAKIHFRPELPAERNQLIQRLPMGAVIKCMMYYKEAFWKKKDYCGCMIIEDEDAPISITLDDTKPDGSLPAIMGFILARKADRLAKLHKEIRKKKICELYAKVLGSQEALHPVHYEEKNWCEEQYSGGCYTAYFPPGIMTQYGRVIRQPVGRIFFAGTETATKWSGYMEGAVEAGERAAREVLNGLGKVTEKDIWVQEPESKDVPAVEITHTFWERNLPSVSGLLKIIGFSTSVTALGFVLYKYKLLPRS
It is filed as functional.

In assay [2] the target is cGMP-inhibited 3',5'-cyclic phosphodiesterase 3A (Homo sapiens, UniProt Q14432). The format is functional.
cGMP-inhibited 3',5'-cyclic phosphodiesterase 3A, sequence (Q14432 whole entry): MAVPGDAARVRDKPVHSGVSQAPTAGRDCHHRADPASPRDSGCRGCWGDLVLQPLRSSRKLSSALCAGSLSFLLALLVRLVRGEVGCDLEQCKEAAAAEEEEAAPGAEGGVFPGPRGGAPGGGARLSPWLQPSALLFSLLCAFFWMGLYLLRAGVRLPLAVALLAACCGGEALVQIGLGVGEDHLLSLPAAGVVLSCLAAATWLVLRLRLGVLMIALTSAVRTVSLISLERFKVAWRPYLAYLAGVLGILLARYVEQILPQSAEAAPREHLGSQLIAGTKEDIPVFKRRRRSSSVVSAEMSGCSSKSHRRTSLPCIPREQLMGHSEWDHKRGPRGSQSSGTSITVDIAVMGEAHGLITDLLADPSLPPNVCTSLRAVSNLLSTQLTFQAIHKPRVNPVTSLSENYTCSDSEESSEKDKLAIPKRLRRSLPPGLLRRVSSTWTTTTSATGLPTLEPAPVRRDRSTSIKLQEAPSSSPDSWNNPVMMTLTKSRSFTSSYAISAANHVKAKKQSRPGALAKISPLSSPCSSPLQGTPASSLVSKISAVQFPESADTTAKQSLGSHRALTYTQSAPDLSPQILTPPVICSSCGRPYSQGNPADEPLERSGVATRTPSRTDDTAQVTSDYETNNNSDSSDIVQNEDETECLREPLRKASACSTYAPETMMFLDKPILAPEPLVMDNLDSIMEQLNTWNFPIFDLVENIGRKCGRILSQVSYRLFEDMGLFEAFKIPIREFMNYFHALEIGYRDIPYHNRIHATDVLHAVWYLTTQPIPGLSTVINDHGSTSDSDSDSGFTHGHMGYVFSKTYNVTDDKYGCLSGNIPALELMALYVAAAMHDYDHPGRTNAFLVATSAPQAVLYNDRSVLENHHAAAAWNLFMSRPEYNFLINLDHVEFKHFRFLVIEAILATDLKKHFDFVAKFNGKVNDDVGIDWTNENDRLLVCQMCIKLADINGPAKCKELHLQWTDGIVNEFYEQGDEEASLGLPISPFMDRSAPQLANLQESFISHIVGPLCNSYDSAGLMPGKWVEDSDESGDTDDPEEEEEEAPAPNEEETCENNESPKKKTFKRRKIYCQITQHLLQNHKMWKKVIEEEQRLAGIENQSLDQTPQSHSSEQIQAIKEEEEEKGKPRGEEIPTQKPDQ
A further assay addresses T2, Progesterone receptor (Homo sapiens, UniProt P06401).
T2 sequence (P06401 whole entry): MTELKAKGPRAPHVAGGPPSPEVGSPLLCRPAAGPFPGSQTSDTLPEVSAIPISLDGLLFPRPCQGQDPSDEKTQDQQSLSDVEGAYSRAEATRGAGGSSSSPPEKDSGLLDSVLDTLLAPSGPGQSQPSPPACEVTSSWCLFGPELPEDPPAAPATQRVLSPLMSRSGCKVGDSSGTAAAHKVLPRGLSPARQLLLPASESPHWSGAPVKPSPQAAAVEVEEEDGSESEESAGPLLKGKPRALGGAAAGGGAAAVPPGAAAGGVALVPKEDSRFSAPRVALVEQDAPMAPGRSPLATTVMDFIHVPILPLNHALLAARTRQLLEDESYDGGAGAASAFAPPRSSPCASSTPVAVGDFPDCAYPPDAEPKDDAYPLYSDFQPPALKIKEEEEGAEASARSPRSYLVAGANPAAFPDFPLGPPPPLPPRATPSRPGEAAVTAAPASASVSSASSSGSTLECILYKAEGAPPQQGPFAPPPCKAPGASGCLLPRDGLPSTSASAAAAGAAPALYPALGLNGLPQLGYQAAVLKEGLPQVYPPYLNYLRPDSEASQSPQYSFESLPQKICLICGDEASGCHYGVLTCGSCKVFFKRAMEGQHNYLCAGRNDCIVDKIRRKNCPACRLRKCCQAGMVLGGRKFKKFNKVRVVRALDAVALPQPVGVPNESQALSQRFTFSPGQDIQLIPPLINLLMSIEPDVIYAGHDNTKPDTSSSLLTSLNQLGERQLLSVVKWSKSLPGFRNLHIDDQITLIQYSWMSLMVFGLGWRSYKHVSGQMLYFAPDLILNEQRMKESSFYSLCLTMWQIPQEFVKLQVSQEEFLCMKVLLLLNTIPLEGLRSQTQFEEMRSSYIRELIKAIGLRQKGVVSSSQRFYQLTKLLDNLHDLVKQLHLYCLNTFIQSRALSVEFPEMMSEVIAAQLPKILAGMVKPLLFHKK

The target in assay [3] is Prostaglandin G/H synthase 1 (Homo sapiens, UniProt P23219). It is filed as functional.
Prostaglandin G/H synthase 1, sequence (P23219 whole entry): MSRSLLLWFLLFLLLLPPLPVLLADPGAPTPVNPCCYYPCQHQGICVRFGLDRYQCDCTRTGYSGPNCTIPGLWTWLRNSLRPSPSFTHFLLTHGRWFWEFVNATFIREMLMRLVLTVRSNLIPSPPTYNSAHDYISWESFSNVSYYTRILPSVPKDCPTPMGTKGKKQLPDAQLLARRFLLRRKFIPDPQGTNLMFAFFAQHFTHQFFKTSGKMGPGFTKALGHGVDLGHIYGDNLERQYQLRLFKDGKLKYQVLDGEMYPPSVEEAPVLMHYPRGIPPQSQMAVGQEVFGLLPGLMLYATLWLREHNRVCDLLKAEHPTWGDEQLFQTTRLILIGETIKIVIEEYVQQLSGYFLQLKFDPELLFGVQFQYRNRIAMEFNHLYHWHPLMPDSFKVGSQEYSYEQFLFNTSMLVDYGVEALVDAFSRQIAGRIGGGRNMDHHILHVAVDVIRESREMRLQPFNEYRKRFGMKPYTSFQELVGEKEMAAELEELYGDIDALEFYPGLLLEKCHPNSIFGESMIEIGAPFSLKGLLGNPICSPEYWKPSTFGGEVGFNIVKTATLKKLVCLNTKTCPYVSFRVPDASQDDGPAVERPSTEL
Another assay has as its target T3, Thromboxane A2 receptor (Homo sapiens, UniProt P21731).
T3 sequence (P21731 whole entry): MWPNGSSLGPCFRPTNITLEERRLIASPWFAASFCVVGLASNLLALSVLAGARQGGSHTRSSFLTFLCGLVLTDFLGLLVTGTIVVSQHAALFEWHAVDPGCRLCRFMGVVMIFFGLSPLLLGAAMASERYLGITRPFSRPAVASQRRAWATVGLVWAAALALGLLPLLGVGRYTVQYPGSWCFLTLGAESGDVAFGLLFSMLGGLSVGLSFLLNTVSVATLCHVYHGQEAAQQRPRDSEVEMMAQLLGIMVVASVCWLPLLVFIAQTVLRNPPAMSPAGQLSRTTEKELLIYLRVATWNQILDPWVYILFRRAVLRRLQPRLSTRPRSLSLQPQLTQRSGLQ
The format is functional, cell-based.

Another assay has as its target Acetylcholinesterase (Homo sapiens, UniProt P22303). It is filed as functional.
The target of assay [4] is T4, Muscarinic acetylcholine receptor M2 (Homo sapiens, UniProt P08172).
T4 sequence (P08172 whole entry): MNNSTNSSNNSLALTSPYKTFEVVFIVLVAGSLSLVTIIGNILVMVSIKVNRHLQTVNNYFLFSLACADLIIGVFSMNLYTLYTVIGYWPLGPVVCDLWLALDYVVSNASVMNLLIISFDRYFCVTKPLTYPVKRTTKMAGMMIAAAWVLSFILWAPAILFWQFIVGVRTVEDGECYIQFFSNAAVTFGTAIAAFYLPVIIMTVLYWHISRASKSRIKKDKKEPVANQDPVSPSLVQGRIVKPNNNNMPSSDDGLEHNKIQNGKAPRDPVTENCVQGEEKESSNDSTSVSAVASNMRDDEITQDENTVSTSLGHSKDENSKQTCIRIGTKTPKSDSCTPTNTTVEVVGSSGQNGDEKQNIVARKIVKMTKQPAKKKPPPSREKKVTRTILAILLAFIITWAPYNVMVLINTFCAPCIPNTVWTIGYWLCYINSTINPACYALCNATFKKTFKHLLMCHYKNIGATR

The target of assay [5] is Sodium-dependent noradrenaline transporter (Homo sapiens, UniProt P23975).
Sodium-dependent noradrenaline transporter, sequence (P23975 whole entry): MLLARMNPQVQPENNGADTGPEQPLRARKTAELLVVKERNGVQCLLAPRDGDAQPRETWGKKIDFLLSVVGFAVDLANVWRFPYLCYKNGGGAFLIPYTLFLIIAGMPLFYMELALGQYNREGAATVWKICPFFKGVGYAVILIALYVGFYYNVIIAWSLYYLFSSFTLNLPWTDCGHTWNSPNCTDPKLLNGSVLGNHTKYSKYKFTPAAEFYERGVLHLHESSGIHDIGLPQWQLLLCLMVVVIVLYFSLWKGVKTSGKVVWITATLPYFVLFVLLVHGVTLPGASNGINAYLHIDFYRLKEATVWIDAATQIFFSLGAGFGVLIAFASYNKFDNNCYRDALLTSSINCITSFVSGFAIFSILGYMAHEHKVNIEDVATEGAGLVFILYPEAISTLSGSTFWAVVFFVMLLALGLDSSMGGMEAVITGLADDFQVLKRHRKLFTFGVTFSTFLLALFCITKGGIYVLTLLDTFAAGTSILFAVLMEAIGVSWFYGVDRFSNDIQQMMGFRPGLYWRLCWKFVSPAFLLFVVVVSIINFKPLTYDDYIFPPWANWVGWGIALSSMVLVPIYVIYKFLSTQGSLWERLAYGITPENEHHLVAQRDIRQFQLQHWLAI
For assay [6], the target named is T5, Alpha-1A adrenergic receptor (Homo sapiens, UniProt P35348).
T5 sequence (P35348 whole entry): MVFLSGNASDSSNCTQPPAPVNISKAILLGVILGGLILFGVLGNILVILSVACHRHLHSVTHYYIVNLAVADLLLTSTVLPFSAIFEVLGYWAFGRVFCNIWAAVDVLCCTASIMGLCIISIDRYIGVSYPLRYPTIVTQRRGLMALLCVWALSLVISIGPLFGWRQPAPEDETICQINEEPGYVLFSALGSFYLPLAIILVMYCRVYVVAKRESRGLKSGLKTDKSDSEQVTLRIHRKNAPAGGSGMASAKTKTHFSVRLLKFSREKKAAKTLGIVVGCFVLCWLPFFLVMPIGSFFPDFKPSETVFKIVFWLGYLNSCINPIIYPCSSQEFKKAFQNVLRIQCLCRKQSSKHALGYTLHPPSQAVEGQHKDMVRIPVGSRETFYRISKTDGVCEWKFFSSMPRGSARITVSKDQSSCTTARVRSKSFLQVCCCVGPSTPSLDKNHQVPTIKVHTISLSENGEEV
It is filed as functional, cell-based.

Bounds are passed on as bounds.
Also: assay procedure not described here.

Acetylcholinesterase, sequence (P22303 whole entry): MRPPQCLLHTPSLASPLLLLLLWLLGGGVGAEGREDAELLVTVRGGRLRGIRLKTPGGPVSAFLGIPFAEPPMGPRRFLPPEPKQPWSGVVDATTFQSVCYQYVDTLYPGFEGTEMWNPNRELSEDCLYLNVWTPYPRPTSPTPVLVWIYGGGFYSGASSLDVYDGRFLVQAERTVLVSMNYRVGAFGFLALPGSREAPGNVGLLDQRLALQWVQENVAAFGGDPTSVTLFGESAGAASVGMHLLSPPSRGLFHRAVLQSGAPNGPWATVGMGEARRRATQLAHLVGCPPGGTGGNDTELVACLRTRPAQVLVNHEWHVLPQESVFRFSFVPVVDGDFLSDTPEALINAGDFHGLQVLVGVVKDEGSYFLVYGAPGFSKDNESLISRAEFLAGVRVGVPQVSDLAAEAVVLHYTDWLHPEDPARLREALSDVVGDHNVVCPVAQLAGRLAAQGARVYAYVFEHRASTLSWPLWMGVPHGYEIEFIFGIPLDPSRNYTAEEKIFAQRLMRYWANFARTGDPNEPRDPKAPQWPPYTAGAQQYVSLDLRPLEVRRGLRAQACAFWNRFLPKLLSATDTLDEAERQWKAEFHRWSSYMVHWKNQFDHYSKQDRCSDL

Consider `NS(=O)(=O)c1cc2c(cc1Cl)NC(CC1CCCC1)NS2(=O)=O` (centres undefined) [CYCLOPENTHIAZIDE], for which the AC50 (in assay [1]; in assay [2]; on Progesterone receptor; in assay [3]; on Thromboxane A2 receptor; on Acetylcholinesterase) was greater than 30 µM in each case. Also, the AC50 in [4] and in assay [5] was greater than 30 µM throughout.
As for `CCCCN(CCCC)CCCOC(=O)c1ccc(N)cc1` [BUTACAINE], the AC50 (in assay [1]; in assay [2]; in [6]; in [3]; on Thromboxane A2 receptor; on Acetylcholinesterase) was greater than 30 µM in each case. The AC50 is 16.3 µM in [4] and greater than 30 µM in assay [5].
As for `Nc1ccc(/N=N/c2ccccc2)c(N)n1` [PHENAZOPYRIDINE], the AC50 is greater than 30 µM in [1]; 20.9 µM in assay [2]; greater than 30 µM on Progesterone receptor; greater than 30 µM in [3]; greater than 30 µM on Thromboxane A2 receptor; greater than 3 µM on Acetylcholinesterase. Moreover, the results for the AC50 in assay [4] and in [5] were greater than 30 µM and 3.85 µM, respectively.
On to `CO/N=C(\C(=O)N[C@@H]1C(=O)N2C(C(=O)OCOC(=O)C(C)(C)C)=C(C)CS[C@H]12)c1csc(N)n1`, for which the AC50 is greater than 30 µM in assay [1]; greater than 30 µM in assay [2]; greater than 30 µM on Progesterone receptor; 23.2 µM in assay [3]; greater than 30 µM at Thromboxane A2 receptor; greater than 30 µM on Acetylcholinesterase. For the same compound, the AC50 in assay [4] and in [5] was greater than 30 µM in each case.
Regarding `COCC1=C(C(=O)OC(C)OC(=O)OC(C)C)N2C(=O)[C@@H](NC(=O)/C(=N\OC)c3csc(N)n3)[C@H]2SC1` (some centres undefined) [CEFPODOXIME PROXETIL], the AC50 in [1] was greater than 30 µM; in assay [2], greater than 30 µM; on Progesterone receptor, greater than 30 µM; in [3], 18.1 µM; at Thromboxane A2 receptor it was greater than 30 µM; on Acetylcholinesterase it was greater than 30 µM. The AC50 in assay [4] and in assay [5] was greater than 30 µM each time.
With `COc1ccc2c(c1)OC(C)(C)C(c1ccccc1)C2c1ccc(OCCN2CCCC2)cc1` (centres undefined) [ORMELOXIFENE], the AC50 in assay [1] is greater than 30 µM; in assay [2], greater than 30 µM; at Progesterone receptor, 3.57 µM; in assay [3], 3.31 µM; at Thromboxane A2 receptor, greater than 30 µM; on Acetylcholinesterase, greater than 30 µM. Besides, the AC50 in [4] came to 9.13 µM; in [5], 4.9 µM.
As for `CCO[C@@H](Cc1ccc(OCCn2c(C)ccc2-c2ccc(SC)cc2)cc1)C(=O)O` [SAROGLITAZAR], the AC50 in assay [1] is greater than 30 µM; in assay [2] it was greater than 30 µM; on Progesterone receptor, 8.57 µM; in assay [3] it was 9.49 µM; at Thromboxane A2 receptor, 16.4 µM; on Acetylcholinesterase, greater than 30 µM. The AC50 in assay [4] was greater than 30 µM; in [5], 24.5 µM.
On to `CN1C(=O)N(C)C2C1N(C)C(=O)N2C` (centres undefined) [MEBICAR], for which the AC50 (in assay [1]; in assay [2]; at Progesterone receptor; in assay [3]; on Thromboxane A2 receptor; on Acetylcholinesterase) was greater than 30 µM throughout. The AC50 in assay [4] and in assay [5] was greater than 30 µM each time.
Consider `O=C(Cn1ccnc1[N+](=O)[O-])NCc1ccccc1` [BENZNIDAZOLE], for which the concentration at half-maximal activity (AC50) (in assay [1]; in assay [2]; at Progesterone receptor; in [3]; at Thromboxane A2 receptor; on Acetylcholinesterase) was greater than 30 µM in each case. Besides, the half-maximal activity concentration (AC50) in assay [4] and in [5] was greater than 30 µM each time.
For `N/N=c1/cc2c(n[nH]1)CCN(C(=O)c1ccccc1)C2` [ENDRALAZINE], the AC50 (in assay [1]; in assay [2]; on Progesterone receptor; in [3]; at Thromboxane A2 receptor; on Acetylcholinesterase) was greater than 30 µM each time. Besides, the AC50 in assay [4] and in assay [5] was greater than 30 µM in each case.
With `CC(=O)O[C@]1(C(C)=O)CC[C@H]2[C@@H]3C[C@H](C)C4=CC(=O)CC[C@]4(C)[C@H]3CC[C@@]21C` [MEDROXYPROGESTERONE ACETATE], the concentration at half-maximal activity (AC50) is greater than 30 µM in assay [1]; greater than 30 µM in [2]; greater than 30 µM in assay [6]; greater than 10 µM in assay [3]; greater than 30 µM at Thromboxane A2 receptor; greater than 30 µM on Acetylcholinesterase. Besides, the AC50 in [4] was 21.2 µM; in assay [5], greater than 30 µM.
On to `CCN(CC)CCNc1ccc(C)c2sc3ccccc3c(=O)c12` [LUCANTHONE], for which the AC50 in [1] was 16.3 µM; in [2], greater than 30 µM; on Progesterone receptor, greater than 30 µM; in [3], greater than 30 µM; on Thromboxane A2 receptor it was greater than 30 µM; at Acetylcholinesterase it was greater than 30 µM. Moreover, the AC50 worked out at 2.36 µM in [4] and 2.68 µM in assay [5].
Take `CC(C)=CCC1C(=O)N(c2ccccc2)N(c2ccccc2)C1=O` [FEPRAZONE]: the half-maximal activity concentration (AC50) was greater than 30 µM in assay [1]; greater than 30 µM in assay [2]; greater than 30 µM on Progesterone receptor; 0.26 µM in assay [3]; greater than 30 µM on Thromboxane A2 receptor; greater than 30 µM on Acetylcholinesterase. In addition, the AC50 in assay [4] and in assay [5] was greater than 30 µM throughout.
